Like-named read-outs stand apart in the source and are kept apart here.
Columns and labels:
[1] = lipophilicity, hydrophobicity and stability; type: physicochemical
[2] = tested on: human glioma U251 cells (Sig1-R transfected cells); assay: intracellular ATP concentration in human glioma U251 cells; type: cell-based
Procedure: To cultured human glioma US251 cells (Sig1-R transfected cells) were added Specimens 1 and 2, respectively and intercomparison was performed between intracellular ATP concentration after addition and that without addition (Cont.). […] It is to be noted that fluorescence measurement was performed 6 hours after the administration of the specimens.

[3] = tested on: mitochondrial Ca^2+ concentration in cerebral cortex and hippocampal neurons; assay: K+ depolarization-induced mitochondrial Ca2+ increase in brain slices after intraperitoneal administration; type: in vivo, C57BL/6N mice
Procedure: One of adult C57BL/6N mice (from 10 to 17 weeks old, weight: from 28 to 31 g) was intraperitoneally administered with physiological saline (Control) and the other one with Specimen 3 (10 μg/kg). After 22 hours, a thin brain slice preparation of each mouse including the cortex and the hippocampus was made. Depolarization of a cellular membrane was caused by the addition of 80 mM KCl (80K) to an extracellular fluid and an increase in mitochondrial Ca^2+ concentration resulting therefrom was measured by a fluorescent method with Rhod-2 (Note 1). Positive participation of Specimen 3 to the ATP activity in mitochondria was indirectly verified (Note 3) by using, as an index, how the Ca^2+ concentration to be increased by 80K (Note 2) is suppressed by Specimen 3 in the brain slice.
(Note 1) Rhod-2: Ca^2+ fluorescent dye selectively incorporated in mitochondria
(Note 2) The depolarization of the neuronal membrane by 80K occurs due to both the flow of Ca^2+ from the outside to the inside of the cell and the release of Ca^2+ from an intracellular Ca store. The free Ca^2+ which has increased in the cell easily enters the mitochondria, an intracellular independent organ.
(Note 3) The free Ca^2+ which has increased in the neuronal cytoplasm due to 80K stimulation-induced depolarization speedily and immediately transmits into the mitochondria from the cytoplasm. A decrease in the mitochondrial free Ca^2+ concentration caused by the specimen occurs because the free Ca^2+ is scooped out of the cell by an outward Ca pump present in the neuron cytoplasm membrane or adsorption and fixing to a portion inside the mitochondria. Energy for it is supplied from ATP produced in the mitochondria. Based on the results thus obtained, intraperitoneally injected Specimen 3 passes from the blood to glia (astrocyte) cells and is then, incorporated in the mitochondria in the cerebral cortex or hippocampal neuron, by which ATP production in the mitochondria is activated and neurons are activated. […]
Fluorescence measurement results of a mitochondrial Ca^2+ increase are plotted along the ordinate.

[4] = tested on: intracerebral hemorrhage model rats; assay: intracerebral hemorrhage model rats, amount of exercise; type: in vivo, Wistar rats; conditions: 100 μg/kg injected into the brain spot one hour after collagenase; hemorrhage day 1 and one week after
Procedure: Intracerebral hemorrhage model rats were prepared by making a small hole into the skull of adult Wistar rats (weight: from 200 to 230 g) under inhalation anesthesia, administering 1.2 μl of a physiological saline to the right brain striatum in Control group and a physiological saline comprising 0.24 U collagenase (type IV) to that of a hemorrhage group.
In order to confirm the brain cell protective action of Specimen 4 for the intracerebral hemorrhage model rats, 100 μg/kg of Specimen 4 was injected into a spot (white lozenge in the drawing) one hour after administration of collagenase, and exercise footprints of the rat were quantitatively measured. (A: Control, B: Hemorrhage group. Pay attention to color change (to black) after hemorrhage).
For the measurement of the amount of exercise, the moving image of the rats was photographed for 5 minutes. The free movement (exercise distance and exercise speed) during the latter 3 minutes of the photographing time was analyzed.

[5] = cited from earlier work
[6] = tested on: mitochondrial calcium concentration; assay: mitochondrial calcium concentration in brain slice preparations exposed to 80K ACSF, 24 h after subcutaneous administration; type: in vivo, mouse (C57B/6NL)
Procedure: (§1) Formation of brain slice preparation and measurement of calcium concentration: Used was a whole brain half-cut preparation obtained by cutting a whole brain slice (300 μm) of a mouse (C57B/6NL), pretreated with Specimen 1 for 24 hours by subcutaneous administration, at a median line. […] The resulting preparation was placed in a chamber provided on a stage of an inverted fluorescence microscope (Olympus IX71), covered with a piece of black cotton, fixed with a platinum ring, and refluxed (70 ml/hr) in ACSF aerated with 95% O2 and 5% CO2. A fluorescent image of the preparation was acquired using a 4× objective lens and respective images of the hippocampal ventral part and cerebral cortex temporal region were obtained in one screen. For the measurement of a mitochondrial calcium concentration, a change in intensity of red fluorescence (>600 nm) caused by excitation light at 580 nm was determined and for the measurement of a cytoplasmic calcium concentration, a ratio of fluorescence (>500 nm) between excitation at 360 nm and that at 380 nm was determined. A hippocampal CA1 site and a cerebral cortex were used as two regions of interest (ROI).
(§2) In water was dissolved β-NMN to give a 10 mg/kg, 30 mg/kg, or 100 mg/kg solution; Specimen 1 was dissolved in an alcohol to give a solution of 1 mg/ml and then the resulting solution was diluted with water to give a 0.01 mg/kg, 0.1 mg/kg or 1.0 mg/kg solution; and they were subcutaneously administered to mice 24 hours before the formation of the preparation (0.1 ml/10 g).
(§3) In the present test, an operation of exposing the brain preparations formed from mice administered with two drugs having respective concentrations to isotonic 80 mM KCl-ACSF (artificial cerebrospinal fluid) for 5 minutes and then returning them in normal ACSF for 5 minutes was performed three successive times to give a severe calcium load to the preparations. Variations in cytoplasmic and mitochondrial calcium concentrations at that time were measured.
FIG. 31A to FIG. 32C show the quantification results of the effects of β-NMN and Specimen 1 (TND1128) at each concentration. In FIG. 31A to FIG. 32C, FIG. 31A and FIG. 32A show the results of calculating a mitochondrial calcium concentration, as AUC (Area under the curve), for 35 minutes from 5 minutes after starting of the experiment by administration to three times exposure to 80K-ACSF and 5-minute washing (refer to FIG. 37). FIG. 31B. FIG. 31C, FIG. 32B and FIG. 32C show the drug effects on 5-minute 80K administration and 5-minute subsequent washing (1st: from 5 minutes to 15 minutes, 2nd: from 15 minutes to 25 minutes, and 3rd: from 25 minutes to 35 minutes) in the cerebral cortex (CTX) and the hippocampus (CA1), respectively (refer to FIG. 37). A significant difference test was performed using Tukey's method.

[7] = tested on: cytoplasmic calcium concentration; assay: cytoplasmic calcium concentration in brain slice preparations exposed to 80K ACSF, 24 h after subcutaneous administration; type: in vivo, mouse (C57B/6NL)
Procedure: as §1, §2, §3

[8] = as printed in the method, b201, read-out: Kd

## CCCCn1c2nc(=O)n(C)c(=O)c-2cc2ccccc21 [Specimen 2]
[1]
  lipophilicity compared with Specimen 1: higher lipophilicity
[2]; 6 hours after administration
  effectiveness on ATP production compared between specimens: more effective than Specimen 1
[2]; fluorescence measurement 6 hours after administration
  ATP production amount (intracellular ATP concentration vs without addition): significantly increased the ATP production amount

## CCCCn1c2nc(=O)n(C)c(=O)c-2cc2c1C=C1CCC3C(CCC4(C)C(O)CCC34)C1(C)C2 (stereo not drawn) [Specimen 3, 8′-n-Butyl-5′-deaza-17β-hydroxy-3′-methylandrost-2,4-dieno[2,3-g]pteridine-2′,4′(3′H,8′H)-dione]
[3]; 10 μg/kg i.p. pretreatment in vivo
  decrease of 80K depolarization-induced increase in mitochondrial Ca2+ concentration, cortex and hippocampal neurons: markedly and at the maximum
[3]; 10 μg/kg i.p., slice made 22 hours after injection
  variations of mitochondrial Ca2+ concentration on 80K extracellular fluid, cerebral cortex neurons: suppression of the Ca^2+ concentration increase and a faster recovery from the Ca^2+ concentration increased by 80K depolarization can be observed
[3]; i.p., 10 μg/kg and 10 mg/kg compared, n=3 slices
  dose at which the maximum inhibitory effect on mitochondrial Ca2+ concentration increase is attained, hippocampal neurons: 0.01 mg/kg

## Cn1c(=O)nc2n(-c3ccccc3)c3cc(Cl)ccc3cc-2c1=O [Specimen 4]
[4]
  exercise distance: ameliorates an ischemic decrease
  exercise speed: ameliorates an ischemic decrease

## CC(=O)OCOC(=O)CN(CC(=O)OCOC(C)=O)c1ccc(C)cc1OCCOc1cc(C2=c3cc4c5c(c3Oc3c2cc2c6c3CCCN6CCC2)CCC[N+]=5CCC4)ccc1N(CC(=O)OCOC(C)=O)CC(=O)OCOC(C)=O [Xrhod-1/AM]
[5]; [8]
  Kd: 700 µM

## CC(=O)OCOC(=O)CN(CC(=O)OCOC(C)=O)c1cc(F)ccc1OCCOc1cc2cc(-c3ncc(C(=O)OCOC(C)=O)o3)oc2cc1N(CC(=O)OCOC(C)=O)CC(=O)OCOC(C)=O [fura-4F/AM]
[5]; [8]
  Kd: 770 µM
[5]; read-out: Ca2+ chelating ability (Kd)
  Kd: 0.77 µM

## NC(=O)c1ccc[n+]([C@@H]2O[C@H](COP(=O)([O-])O)[C@@H](O)[C@H]2O)c1 [β-NMN, Nicotinamide mononucleotide, reference compound]
[6]; 100 mg/kg β-NMN, 1 mg/kg Specimen 1
  physiological response of the preparations under 80K-ACSF stimulation (mitochondrial and cytoplasmic Ca2+ variations): the preparations can maintain a markedly stable physiological response
[6]; 24 hours after administration
  mitochondrial protective function / function stabilizing effect: induces significant mitochondrial protective function
[6]; s.c. 24 h pretreatment, within the dose range studied, Tukey's method
  mitochondrial calcium concentration as AUC, cerebral cortex (CTX) and hippocampus (CA1): a dose response relationship
[6]; s.c. 24 h pretreatment, β-NMN 10, 30, 100 mg/kg, Specimen 1 0.01, 0.1, 1.0 mg/kg
  mitochondrial Ca2+ increase on three times 80K ACSF exposure (time course): dose-dependently suppress a mitochondrial Ca^2+ increase
[7]; s.c. 24 h pretreatment
  effect on drastic increase in cytoplasmic Ca2+ concentration caused by 80K-ACSF: no significant effect
[7]; s.c. 24 h pretreatment, all doses
  quantified cytoplasmic Ca2+ (AUC), significant difference: a significant difference was not observed at concentrations other than that of the group administered with 10 mg/kg of β-NMN
[7]; β-NMN 30 or 100 mg/kg, Specimen 1 0.01 to 1.0 mg/kg, s.c. 24 h
  recovery of cytoplasmic calcium concentration variations at each 80K-ACSF administration: show similar recovery
